Laboratory results as given in PMC2588526 (Nucleic Acids Research, 2008).

Key:
[1] = molecular target: T1, GlTgs (Giardia duodenalis, UniProt A8BW33); assay: 3H methyl transfer, PEI-cellulose TLC; format: biochemical; settings: 0.1 mM m7GDP, 5 μM [methyl-3H]AdoMet, 37 °C; single methylation to DMG
T1 sequence (A8BW33 1-258): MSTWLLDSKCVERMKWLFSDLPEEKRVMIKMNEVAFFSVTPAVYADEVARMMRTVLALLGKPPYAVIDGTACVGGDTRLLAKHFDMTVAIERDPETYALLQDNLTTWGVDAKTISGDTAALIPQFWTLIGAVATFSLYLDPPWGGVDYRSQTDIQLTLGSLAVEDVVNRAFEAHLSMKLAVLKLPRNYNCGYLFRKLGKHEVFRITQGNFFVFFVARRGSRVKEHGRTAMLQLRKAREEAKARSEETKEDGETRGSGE

[2] = molecular target: T2, TvTgs (Trichomonas vaginalis, UniProt A2DM16); assay: radiometric 3H methyl transfer, DEAE filter; format: biochemical
T2 sequence (A2DM16 1-280): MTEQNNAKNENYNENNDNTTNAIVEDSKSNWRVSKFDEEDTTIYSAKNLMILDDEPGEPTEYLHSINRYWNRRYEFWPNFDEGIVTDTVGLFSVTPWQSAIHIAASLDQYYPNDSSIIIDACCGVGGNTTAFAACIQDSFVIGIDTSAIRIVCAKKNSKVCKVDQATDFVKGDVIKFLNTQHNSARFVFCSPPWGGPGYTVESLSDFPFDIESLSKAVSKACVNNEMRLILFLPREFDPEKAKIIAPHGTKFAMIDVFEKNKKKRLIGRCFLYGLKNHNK

[3] = substrate: C[n+]1cn([C@@H]2O[C@H](COP(=O)(O)OP(=O)(O)O)[C@@H](O)[C@H]2O)c2nc(N)[nH]c(=O)c21; assay: radiometric 3H methyl transfer, DEAE filter; format: biochemical, Trichomonas vaginalis; settings: [methyl-3H]AdoMet co-substrate, pH 7.5, 37 °C
[4] = substrate: C[n+]1cn([C@@H]2O[C@H](COP(=O)(O)OP(=O)(O)OP(=O)(O)O)[C@@H](O)[C@H]2O)c2nc(N)[nH]c(=O)c21; assay: radiometric 3H methyl transfer, DEAE filter; format: biochemical, Trichomonas vaginalis; settings: [methyl-3H]AdoMet co-substrate, pH 7.5, 37 °C

## C[n+]1cn([C@@H]2O[C@H](COP(=O)(O)OP(=O)(O)O)[C@@H](O)[C@H]2O)c2nc(N)[nH]c(=O)c21 [m^7GDP]
[1]
  3H methyl transfer, PEI-cellulose TLC: TvTgs (Tv), GlTgs (Gl) and SpTgs (Sp) were compared side by side

## Nc1ncnc2c1ncn2[C@@H]1O[C@H](CSCC[C@H](N)C(=O)O)[C@@H](O)[C@H]1O [AdoHcy]
[2]
  IC50: ~250 µM

B1: TvTgs (Trichomonas vaginalis G3) (protein)
chain: T2 sequence (A2DM16 1-280)
[3]
  Km: 250 +/– 30.7 μM
[4]
  Km: 1.59 +/– 0.205 mM
